In PubChem BioAssay AID1053137 (Broad Institute, 2014):

Legend:
[1] = test system: HepG2 PCSK9 mRNA, qRT-PCR, overnight; assay: PCSK9 mRNA reduction in HepG2 cells, late-stage follow-up, mechanism study for TRIB1 upregulator project, cell-based, RT-qPCR, cherry-pick (AID 1053137)
[2] = as above; conditions: HepG2 PCSK9 mRNA, qRT-PCR, overnight; measured here: maximal PCSK9 expression inhibition; stronger effect = higher value

| Compound | AC50 [1] | inhibition [2] |
| --- | --- | --- |
| CN1C(=O)c2cc(NC(=O)c3ccc(C(F)(F)F)cc3)ccc2OC[C@@H]2O[C@H](CC(=O)NC3Cc4ccccc4C3)CC[C@@H]21 | 110 nM | 85% |
| CN1C(=O)c2cc(NC(=O)c3ccc(C(F)(F)F)cc3)ccc2OC[C@@H]2O[C@@H](CC(=O)NC3Cc4ccccc4C3)CC[C@@H]21 | 870 nM | 87% |
